Patent US6787564B2, “Optically active clausenamides, process of the preparation thereof, pharmaceutical composition containing the same and their medical use” (Institute of Materia Medica, Chinese Academy of Medical …, priority 2002, dated 2004)

Tests used:
calpain = calpain activity in the cortical and hippocampal tissue; format: in vivo, rats; conditions: without HFS, Nimodipine 2 nmol, mean ± S.D., n = 5
Source text: The rats were anaesthetized with urethane carbonate.

[1] = system: animals with anisodine-induced memory impairment; assay: step-down test, memory impairment induced by anisodine; format: in vivo
Source text: (§1) This invention used one trial avoidance task—step-down and step-through tests and water maze to compare the improving memorial effects of (±), (−) clausenamide. The drugs were given orally once to animals before experiment in step-down and step-through tests. The water maze test lasted for 5 days in succession. The results were expressed as latency and errors number.

[2] = system: β-AP (25-35)-treated rats; assay: one trial passive avoidance of β-AP (25-35)-treated rats; format: in vivo; conditions: n = 9
animals = assay: memory in water maze test; format: in vivo; conditions: 10 mg/kg
Source text: as §1

[3] = system: Bax α high expressing PC12 cells; assay: 6-OHDA induced apoptosis of Bax α high expressing PC12 cells (TUNEL, flowcytometry); format: cell-based; conditions: 6-OHDA 100 μM, without drug 49.9%
Source text: 1. The Construction of pcDNA3-bax α Plasmid and its Transfection into the PC12 Cell Line
In order to increase the expression level of the transfected gene, we first cut some of the 3′ polyA signal sequences from the Bax α cDNA and constructed the intermediate plasmid pBluescript SK-Bax α (pA). Then cut the Bax α cDNA from the intermediate plasmid, religate with the eukaryotic expression plasmid pcDNA3 and obtained the pcDNA3-Bax α recombinant plasmid. […] The recombinated Bax α has −50 bp of 5′ untranslated region(5′-UTR), 576 bp of open reading frame (ORF), and 137 bp of 3′ untranslated region (3′-UTR). The 5′ methionine translation initiation region has the Kozak consensus sequences. So this plasmid may be used to transform the Bax α gene into the mammalian cells and guarantees highly expression of Bax α by using its strong promoter.
The Lipofectamine transfecting method was used to transfect the pcDNA3-Bax α into the PC12 cell line. G-418 was used to select the resistant cell clones. […] This experiment successfully produced the Bax α high expressing PC12 cell line.
Under normal condition, the Bax α high expressing cells had the same natural apoptosis rate with the neo transfected PC12 cells.

weaning mice = assay: synapses density in weaning mice; conditions: mouse, in vivo
[4] = system: dentate gyrus granule cells; assay: basal synaptic transmission / LTP in dentate gyrus of hippocampus in anesthetized rats (population spike amplitude); format: in vivo
Source text: Drugs or vehicle injection were delivered via cannula in the lateral cerebral ventricle at final concentration of 2×10^−6 mol/L. The population spike (PS) amplitude was employed as an indication of the level of excitation of the granular cell population in the dentate gyrus. To obtain this measurement, an evoked response was generated in the dentate gyrus granule cell layer by stimulating the pp at low freguency (0.033 Hz) with. single square wave pulses of 0.15 ms duration The LTP formation must accord the following creteria: The PS amplitude increased is over 30% and this high PS amplitude can persist for 40 min.

mitochondrial complex IV = mitochondrial complex IV activity in Bax α high expressing PC12 cells; format: cell-based; conditions: without drug 0.09±0.019
Source text: Obviously, the increased mitochondrial membrane potential is considered to be one of the antiapoptotic mechanisms of (−) Clausenamide. The increased mitochondrial complex I and complex IV activity may account for the increased mitochondrial membrane potential. The Bax α protein may induce apoptosis by affecting enzyme activities of the mitochondrial electron transfer chain. And the mitochondrial complex I and complex IV could be the targeting points of the Bax α protein.

[5] = system: dentate gyrus of hippocampus; assay: induction of LTP in hippocampal of rat (population spike amplitude); format: in vivo, SD rats; conditions: I.C.V.; means ± SD
Source text: Adult male SD rats were anesthetized to maintain a surgical level. A stainless steel cannula-recording electrode was placed in DG (dentate gyrus) of hippocampus using a stereotaxic instrument. The combination of cannula-recording electrode was constructed by insulating the outside of the cannula, except at the tip and top. In the top noninsulated area, a stainless steel wire was wrapped around the cannula and connected to the amplifier via an amphenol connector. The four pairs optically active clausenamides shown in table 9 was delivered by I.C.V. Responses were evoked via direct stimulation of the performant path (PP) using a stainless steel bipolar stimulating electrode. Constant current stimulation provided by a stimulator was delivered to the stimulating electrode through a Stimulus Isolation Unit.
The stimulating electrode was adjusted until a characteristic EPSP was observed under constant current. The evoked responses were amplified on a series alternating current preamplifier, using a microcomputer, and then stored for off-line analysis using DataWave software. The current intensity that elicited a 50% maximal response in each animal was determined and used for all subsequent stimulation. To measure treatment effects, responses were evoked once every 30 sec throughout the entire experiment, and population spike amplitude(PSA) were calculated.

CN1C(=O)[C@@H](O)[C@H](c2ccccc2)[C@@H]1[C@@H](O)c1ccccc1 [(−)clausenamide, 3S, 4R, 5R, 6S (−) Levoclausenamide]
calpain activity, Cortical tissue (calpain; control 1.5 ± 0.2): 2.6 ± 0.5 ΔA595nm/hr/mg protein
calpain activity, Hippocampal tissue (calpain; control 1.7 ± 0.5): 2.7 ± 0.8 ΔA595nm/hr/mg protein
Error number, Step-down ([1]; 5 mg/kg oral once): 0.5 ± 0.5
Latencies, Step-down ([1]; 5 mg/kg oral once): 186 ± 129 s
Error number, Step-down ([1]; 10 mg/kg oral once): 0.2 ± 0.4
Latencies, Step-down ([1]; 10 mg/kg oral once): 296 ± 97 s
Error number, Step-down ([1]; 50 mg/kg oral once): 0.2 ± 0.4
Latencies, Step-down ([1]; 50 mg/kg oral once): 265 ± 91 s
Number of error, Acquisition ([2]; β-AP-treated + drug 8 mg/kg): 0.7 ± 0.24
Number of error, Training ([2]; β-AP-treated + drug 8 mg/kg): 3.1 ± 1.22
Number of error, Acquisition ([2]; β-AP-treated + drug 40 mg/kg): 1.1 ± 0.27
Number of error, Training ([2]; β-AP-treated + drug 40 mg/kg): 4.4 ± 0.87
Lalencies reaching platform, 3rd day (animals): 17.4 ± 10.9 s
Lalencies reaching platform, 4th day (animals): 12.1 ± 6.9 s
Lalencies reaching platform, Second day (animals): 28.7 ± 35.2 s
apoptotic rate ([3]; 10^−5M): 9.5%
apoptotic rate ([3]; 10^−6M): 28.1%
apoptotic rate ([3]; 10^−7M): 36.23%
synapses density in weaning mice (weaning mice): increased synapses density
increase of PS amplitude in comparison with vehicle group ([4]; 30-60 min after drug administration): 38.9-63.4%
LTP formation (PS amplitude increase over 30% persisting 40 min) ([4]; (−) at 2×10^−6 mol/L, (±) up to 5 times that): induce LTP formation
PS % at 15′, in comparison with before drug ([4]; icv, 2×10^−6 mol/L): 19.8%
PS % at 15′, in comparison with control (vehicle) group ([4]; icv, 2×10^−6 mol/L): 10.0%
PS % at 30′, in comparison with before drug ([4]; icv, 2×10^−6 mol/L): 48.5%
PS % at 30′, in comparison with control (vehicle) group ([4]; icv, 2×10^−6 mol/L): 38.9%
PS % at 45′, in comparison with before drug ([4]; icv, 2×10^−6 mol/L): 66.3%
PS % at 45′, in comparison with control (vehicle) group ([4]; icv, 2×10^−6 mol/L): 52.7%
PS % at 60′, in comparison with before drug ([4]; icv, 2×10^−6 mol/L): 81.2%
PS % at 60′, in comparison with control (vehicle) group ([4]; icv, 2×10^−6 mol/L): 63.4%
PS amplitude 30′ after drug ([4]; icv, 2×10^−6 mol/L, control 108 ± 7): 150 ± 11
PS amplitude 45′ after drug ([4]; icv, 2×10^−6 mol/L, control 110 ± 10): 168 ± 25
PS amplitude 60′ after drug ([4]; icv, 2×10^−6 mol/L, control 112 ± 7): 183 ± 30
PS amplitude 15′ after drug ([4]; icv, final concentration 2×10^−6 mol/L, control 110 ± 9): 121 ± 9
mitochondrial complex IV activity (mitochondrial complex IV; 10^−5M): 0.18±0.01 umol/mg pro/min
mitochondrial complex IV activity (mitochondrial complex IV; 10^−6M): 0.15±0.02 umol/mg pro/min
mitochondrial complex IV activity (mitochondrial complex IV; 10^−7M): 0.12±0.015 umol/mg pro/min
PSA (%), 15 min [5]: 131.8 ± 0.4%
PSA (%), 30 min [5]: 138.5 ± 8.9%
PSA (%), 60 min [5]: 158.1 ± 4.2%
